Source: ChEMBL document CHEMBL1155119, “Identification of novel inhibitors of methionyl-tRNA synthetase (MetRS) by virtual screening” (Bioorg Med Chem Lett, 2008)

How the values were obtained:
[1] = system: Staphylococcus aureus; experiment: Inhibition of Staphylococcus aureus MetRS assessed as decrease in […] incorporation at 100 uM by SPA
[2] = Inhibition of Staphylococcus aureus MetRS assessed as decrease in […] incorporation by SPA
[3] = system: Staphylococcus aureus; experiment: Inhibition of Staphylococcus aureus MetRS assessed as decrease in […] incorporation at 40 uM by SPA

Row | Structure (SMILES) | inhibition [1] [%] | IC50 [2] [µM] | inhibition [3] [%]
1 | O=C(Cn1nnc(-c2ccccc2)n1)N/N=C/c1ccc(O)cc1O | 45 | – | –
2 | COc1ccc(O)c(/C=N/NC(=O)CCC(=O)Nc2ccc(Br)cc2)c1 | 72 | 41.7 | –
3 | O=C(CSc1nc2ccccc2n1Cc1ccccc1)N/N=C/c1ccccc1O | 76 | – | 52
4 | COc1ccc(O)c(/C=N/NC(=O)CNC(=O)c2ccc(Cl)cc2)c1 | 91 | – | 35
5 | S=C(Nc1ccccc1)Nc1nc2ccccc2n1CCOc1ccc(Cl)cc1 | 67 | 86.8 | –
6 | Cc1cccc(C(=O)Nc2nnc(CC(=O)N/N=C/c3ccc(O)cc3O)s2)c1 | 84 | 46.3 | –
7 | O=C(Nc1ccccc1C(=O)N/N=C/c1ccccc1O)c1ccc(Cl)cc1 | 77 | 23.6 | –
8 | O=C(Nc1ccccc1O)c1cc(C(=O)Nc2ccccc2O)cc(N2C(=O)c3ccccc3C2=O)c1 | 92 | 11.5 | –
9 | NC(=O)[C@H](Cc1ccc(O)cc1)NC(=O)[C@@H]1CCN1/C=C1\N=C(c2ccc(Cl)cc2Cl)OC1=O | – | 0.07 | –
10 | O=C(Nc1cccc(O)c1)c1cnn2c1NC(c1ccc(Br)cc1)CC2C(F)(F)F (configuration not stated) | 55 | 8.3 | –
11 | O=C(Nc1cccc(Cl)c1)Nc1sc2c(c1-c1nc3ccccc3s1)CCCC2 | 80 | 6.3 | –
12 | S=C(Nc1ccccc1)Nc1nc2ccccc2n1CCOc1ccccc1Cl | 66 | 25.3 | –
13 | O=C(NCc1nc2ccccc2[nH]1)[C@@H]1CC(O)CN1Cc1ccc(Cl)cc1Cl (some centres not stated) | – | 0.21 | –
14 | O=C(N/N=C/c1ccc(O)cc1O)c1cc(-c2ccccc2)nc2ccccc12 | 87 | 46.5 | –
15 | O=C(O)c1ccc(OCc2ccc(Cl)cc2Cl)c(OCc2nc3ccccc3[nH]2)c1 | – | 0.02 | –
16 | O=C(CNC(=O)c1ccc(Cl)cc1)N/N=C/c1c(O)ccc2ccccc12 | 80 | 26.6 | –
17 | O=C(CSc1ccc2ccccc2n1)N/N=C/c1ccccc1O | 47 | – | –
18 | O=C(NC(C(=O)N/N=C/c1ccccc1O)c1n[nH]c(=O)c2ccccc12)c1ccccc1 (configuration not stated) | 52 | 35.6 | –
19 | Nc1nn(CCO)c2cc(-c3ccc(Cl)cc3Cl)ccc12 | – | 0.57 | –
20 | Cc1ccc(S(=O)(=O)N2CCC(C(=O)N/N=C/c3ccccc3O)CC2)cc1 | 61 | 40.8 | –
21 | Clc1ccc(-c2ccc(-c3cc(-c4nnn[nH]4)nn3-c3cccnc3)cc2)c(Cl)c1 | – | 0.13 | –
22 | O=C(/N=N/c1nc(Nc2ccccc2)nc(N2CCOCC2)n1)Nc1ccc(Cl)cc1 | 81 | – | 34
23 | O=C(Nc1cccc(O)c1)c1cnn2c1NC(c1cccs1)CC2C(F)(F)F (configuration not stated) | 83 | 5.7 | –
24 | O=C(CCCOc1ccc(Cl)cc1Cl)N/N=C/c1ccccc1O | 86 | 4.8 | –
25 | Cc1cc(Cl)ccc1NC(=O)CCC(=O)N/N=C/c1ccccc1O | 91 | 94.9 | –
26 | O=C(CSc1nc2ccccc2n1Cc1ccc(Cl)cc1)N/N=C/c1ccccc1O | 82 | 56 | –
27 | O=c1cc(NCCCNC2CCOc3c(Br)cc(Br)cc32)[nH]c2ccccc12 (configuration not stated) | – | 0.008 | –
28 | O=C(Nc1cc(Cl)ccc1O)c1cnn2c1NC(c1ccc(Br)cc1)CC2C(F)(F)F (configuration not stated) | 47 | – | –
